Tests used:
[1] = test system: O=C(O)CCC(=O)C(=O)O; assay: cells, lysate or membranes named; settings: other: 20° C., pH 8.0, 50 μM Fe^2, cell-free extract
[2] = test system: O=C(O)COc1ccc(Cl)cc1Cl; assay: cells, lysate or membranes named; settings: other: 20° C., pH 8.0, 50 μM Fe^2, cell-free extract
Source text: (§1) Effect of pH on enzyme activity. Since the color reaction by the 4-aminoantipyrine method is almost instantaneous, the conversion rate of 2,4-D into DCP determines the response time for 2,4-D detection. Higher reaction rates result in smaller response times or less enzyme needed for 2,4-D detection. […] However, the preferred pH for the color reaction is in the range of pH 8.0 to 12.0. […] More importantly, 4-aminoantipyrine reacts with potassium ferricyanide at pH 6.5, producing a slight color change that is similar to having 2 mg/l DCP in solutions. Although pH 6.5 can be used for the enzymatic reaction if the pH of the solution is subsequently adjusted for the color reaction, this is less convenient.
(§2) Effect of Fe^2+ on enzyme activity. […] This saturation concentration should be a function of enzyme concentration used. In order to maximize enzyme activity, a higher ferrous ion concentration, such as 100 μM, should be used for 2,4-D detection.
(§3) Kinetics of enzymatic reaction. […] Since oxygen cannot be controlled in the process of 2,4-D detection, oxygen was not considered in the model. Kinetic data were measured at pH 8.0, 100 mM Fe^2+ and room temperature (20° C.), as shown in the Lineweaver-Burk plots in FIGS. 18A and 18B.
(§4) The values of model parameters were determined from double reciprocal plots.

[3] = target: T1, 2,4-D α-ketoglutarate dioxygenase (Cupriavidus pinatubonensis, UniProt P10088); assay: Enzyme activity and kinetics of recombinant DDO in cell-free extract (DCP production, 4-aminoantipyrine method)
T1 sequence (P10088 whole entry): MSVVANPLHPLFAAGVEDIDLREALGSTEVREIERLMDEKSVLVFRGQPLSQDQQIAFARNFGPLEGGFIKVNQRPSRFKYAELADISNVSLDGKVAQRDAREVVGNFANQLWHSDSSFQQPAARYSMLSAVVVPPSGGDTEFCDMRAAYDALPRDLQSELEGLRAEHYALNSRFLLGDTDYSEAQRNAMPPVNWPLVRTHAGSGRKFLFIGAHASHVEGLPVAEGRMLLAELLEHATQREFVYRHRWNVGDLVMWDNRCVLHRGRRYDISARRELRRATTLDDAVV
Source text: as §1, §2, §3, §4

[4] = target: T1, 2,4-D α-ketoglutarate dioxygenase; design: made in house; host or cells: E. coli DH5α (pYG3), cell-free extract; settings: cited from earlier work
[5] = test system: E. coli DH5α (pYG3); assay: Induction of enzyme production by IPTG in E. coli DH5α (pYG3); type: cell-based
Method: Growth and maintenance of E. coli DH5α (pYG3). E. coli DH5α (pYG3), a strain specifically constructed for 2,4-D detection (Example 1), was routinely maintained on LB plates with 75 mg/l of ampicillin and stored at 4° C. Yeast extract was used as a carbon and energy source for E. coli DH5α (pYG3) with 50 mg/l of ampicillin for selective pressure. Batch cultures of E. coli DH5α (pYG3) were carried out in 1000 ml flasks with 400 ml media for the optimization of media and operating condition. The media were directly inoculated by a single colony on a LB plate. The flasks were shaken on a rotary shaker at 200 rpm and incubated at 30° C. or 37° C.
DCP concentration was measured by the 4-aminoantipyrine method (E. Emerson, J. Org. Chem. 1943, 8, 417-419). In place of 2,4-D, phenoxyacetic acid was used for P. aeruginosa PAO1 (pRO103).
Preparation of cell-free extracts. E. coli cultures (10 or 15 ml) were harvested by centrifugation (8,000×g) for 10 minutes, washed using 5 ml of 100 mM sodium phosphate buffer (pH 8.0), then resuspended in 3 ml of phosphate buffer. Cell-free extracts were obtained by passing the cells once through a pre-chilled French press at 1500 psi and clarifying the debris by centrifugation (16,000×g) for 20 minutes at 4° C.
IPTG concentration. IPTG was used as the inducer of the lacZ promoter which regulated the expression of tfdA in pYG3 (Example 1). […]

Compound: 2,4-D α-ketoglutarate dioxygenase (Cupriavidus pinatubonensis JMP134)
- Km [1]: 55 µM
- Km [2]: 107 µM

Compound: 2,4-D α-ketoglutarate dioxygenase [DDO]
- Vmax ([3]; 20° C., pH 8.0, 50 μM Fe^2, cell-free extract of E. coli DH5α (pYG3)): 2.0 µmol/min/mg
- optimum pH for the enzymatic reaction ([3]; conversion of 2,4-D into DCP): 6.5

Compound: O=C(O)COc1cc(Cl)c(Cl)cc1Cl [2,4,5-T, (2,4,5,-trichlorophenoxy)acetic acid]
- cleavage by DDO [4]: does not cleave

Compound: Cc1ccccc1OCC(=O)O [2-methylphenoxyacetic acid]
- cleavage by DDO [4]: cleaves

Compound: CC(C)S[C@@H]1O[C@H](CO)[C@H](O)[C@H](O)[C@H]1O [IPTG, isopropyl β-D-thiogalactopyranoside]
- saturation IPTG concentration for enzyme production ([5]; E. coli DH5α (pYG3)): approximately 150 mg/l
- activation at 150 µg/mL ([5]; Escherichia coli, at saturation IPTG concentration, approximately 150 mg/l, read-out: enzyme productivity higher than without IPTG): ~40%

Compound: Cc1cc(Cl)ccc1OCC(=O)O [MCPA, 4-chloro-2-methyl-phenoxyacetic acid]
- cleavage by DDO [4]: cleaves the side chain

Compound: [Fe+2] [ferrous ions]
- saturation concentration of ferrous ion for enzyme activity ([3]; cell-free extract): 50 µM

Compound: O=C(O)COc1ccccc1 [phenoxyacetic acid]
- cleavage by DDO [4]: cleaves the side chain

Source: US5656422A, “Compositions and methods for detection of 2,4-dichlorophenoxyacetic acid and related compounds” (Idaho Research Foundation, Inc., priority 1994, dated 1997)
